These results are taken from the supplement of paper PMC4649846.

For experiment [1], the system named is MDA-MB-231. In words: drug sensitivity score (DSS); higher = more sensitive; extreme values may be limits of the assay. Conditions: incubation time: 72 h. In a few lines: (§1)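 For the IC50 and drug sensitivity score, logistic dose–response curves were fitted in Dotmatics Studies. The score compares curve area with a reference area and is normalised by log of top response. Input data were CellTiter-Blue fluorescence readings from MDA-MB-231 cells, transfected a day earlier with BRCA1 or non-targeting control siRNA, that had spent 72 h at 37 °C and 5% CO2 at 4000 cells per well in 384-well plates with compounds at 5 concentrations.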

The test system of experiment [2] is MDA-MB-231. Conditions: incubation time: 72 h. The gist of the method: as §1
Where [3] appears, read: siRNA: siControl (non-targeting).

Where only a bound is given, the exact number is not on record here.

Take `CC(=O)O[C@H]1C(=O)[C@@]2(C)[C@H]([C@H](OC(=O)c3ccccc3)[C@]3(O)C[C@H](OC(=O)[C@H](O)[C@@H](NC(=O)c4ccccc4)c4ccccc4)C(C)=C1C3(C)C)[C@]1(OC(C)=O)CO[C@@H]1C[C@@H]2O` [Paclitaxel]: the drug sensitivity score in the experiment with MDA-MB-231 [1] (siRNA: siBRCA1) amounted to 29.8; with MDA-MB-231 [1] (setting [3]) it was 27.2. Moreover, the entries for the “IC50 of cell viability” value with MDA-MB-231 [2] (siRNA: siBRCA1) and with MDA-MB-231 [2] (setting [3]) were 0.0066 µM and 0.0112 µM, respectively.

Regarding `Cc1[nH]c2ccccc2c1CCNCc1ccc(/C=C/C(=O)NO)cc1` [Panobinostat], the drug sensitivity score in the experiment with MDA-MB-231 [1] (siRNA: siBRCA1) is 28.7; in the experiment on MDA-MB-231 [1] (setting [3]), 29.6. In addition, the “IC50 of cell viability” value is 0.0317 µM with MDA-MB-231 [2] (siRNA: siBRCA1) and 0.0275 µM in the experiment on MDA-MB-231 [2] (setting [3]).

Take `Cc1ccc(Nc2nccc(N(C)c3ccc4c(C)n(C)nc4c3)n2)cc1S(N)(=O)=O` [Pazopanib]: the drug sensitivity score with MDA-MB-231 [1] (siRNA: siBRCA1) and in the experiment with MDA-MB-231 [1] (setting [3]) was 0 throughout. The “IC50 of cell viability” value with MDA-MB-231 [2] (siRNA: siBRCA1) and in the experiment with MDA-MB-231 [2] (setting [3]) was more than 4.17 µM throughout.

With `OC[C@H]1O[C@@H](n2cnc3c2N=CNC[C@H]3O)C[C@@H]1O` [Pentostatin], the drug sensitivity score in the experiment with MDA-MB-231 [1] (siRNA: siBRCA1) and in the experiment on MDA-MB-231 [1] (setting [3]) was 0 throughout. For the same molecule, the “IC50 of cell viability” value in the experiment on MDA-MB-231 [2] (siRNA: siBRCA1) and in the experiment with MDA-MB-231 [2] (setting [3]) was more than 4.17 µM in each case.

Consider `CC[C@@H]1C(=O)OC[C@@H]1Cc1cncn1C` [Pilocarpine], for which the drug sensitivity score in the experiment with MDA-MB-231 [1] (siRNA: siBRCA1) and in the experiment with MDA-MB-231 [1] (setting [3]) was 0 throughout. Also, the “IC50 of cell viability” value with MDA-MB-231 [2] (siRNA: siBRCA1) and in the experiment with MDA-MB-231 [2] (setting [3]) was more than 4.17 µM each time.

On to `O=C(CCBr)N1CCN(C(=O)CCBr)CC1` [Pipobroman], for which the drug sensitivity score with MDA-MB-231 [1] (siRNA: siBRCA1) came out at 1.55; with MDA-MB-231 [1] (setting [3]), 0. Further, the “IC50 of cell viability” value in the experiment on MDA-MB-231 [2] (siRNA: siBRCA1) and with MDA-MB-231 [2] (setting [3]) was more than 4.17 µM each time.

Take `c1cc(CN2CCCNCCNCCCNCC2)ccc1CN1CCCNCCNCCCNCC1` [Plerixafor]: the drug sensitivity score with MDA-MB-231 [1] (siRNA: siBRCA1) and in the experiment with MDA-MB-231 [1] (setting [3]) was 0 each time. For the same molecule, the “IC50 of cell viability” value in the experiment with MDA-MB-231 [2] (siRNA: siBRCA1) and with MDA-MB-231 [2] (setting [3]) was 2.08 µM in each case.

Take `CO[C@H](C(=O)[C@@H](O)[C@@H](C)O)[C@@H]1Cc2cc3cc(O[C@H]4C[C@@H](O[C@@H]5C[C@@H](O)[C@H](O)[C@@H](C)O5)[C@H](O)[C@@H](C)O4)c(C)c(O)c3c(O)c2C(=O)[C@H]1O[C@H]1C[C@@H](O[C@@H]2C[C@@H](O)[C@@H](O[C@@H]3C[C@](C)(O)[C@H](O)[C@@H](C)O3)[C@@H](C)O2)[C@H](O)[C@@H](C)O1` [Plicamycin]: the drug sensitivity score with MDA-MB-231 [1] (siRNA: siBRCA1) worked out at 23.4; in the experiment on MDA-MB-231 [1] (setting [3]), 24.2. For the same molecule, the entries for the “IC50 of cell viability” value in the experiment with MDA-MB-231 [2] (siRNA: siBRCA1) and with MDA-MB-231 [2] (setting [3]) were 0.0679 µM and 0.056 µM, respectively.

Take `Cc1ccc(C(=O)Nc2ccc(CN3CCN(C)CC3)c(C(F)(F)F)c2)cc1C#Cc1cnc2cccnn12` [Ponatinib]: the drug sensitivity score amounted to 16 with MDA-MB-231 [1] (siRNA: siBRCA1) and 15.4 with MDA-MB-231 [1] (setting [3]). In addition, the “IC50 of cell viability” value with MDA-MB-231 [2] (siRNA: siBRCA1) is 0.297 µM; with MDA-MB-231 [2] (setting [3]), 0.363 µM.

Consider `C[C@]12C=CC(=O)C=C1CC[C@@H]1[C@@H]2[C@@H](O)C[C@@]2(C)[C@H]1CC[C@]2(O)C(=O)CO` [Prednisolone], for which the drug sensitivity score in the experiment on MDA-MB-231 [1] (siRNA: siBRCA1) and in the experiment with MDA-MB-231 [1] (setting [3]) was 0 in each case. Besides, the “IC50 of cell viability” value with MDA-MB-231 [2] (siRNA: siBRCA1) and in the experiment with MDA-MB-231 [2] (setting [3]) was more than 4.17 µM each time.

As to `C[C@]12C=CC(=O)C=C1CC[C@@H]1[C@@H]2C(=O)C[C@@]2(C)[C@H]1CC[C@]2(O)C(=O)CO` [Prednisone], the drug sensitivity score in the experiment on MDA-MB-231 [1] (siRNA: siBRCA1) and in the experiment on MDA-MB-231 [1] (setting [3]) was 0 throughout. The “IC50 of cell viability” value with MDA-MB-231 [2] (siRNA: siBRCA1) and in the experiment with MDA-MB-231 [2] (setting [3]) was more than 4.17 µM throughout.

Take `COCC1(CO)C(=O)C2CCN1CC2` (centres undefined) [Prima-1 Met]: the drug sensitivity score in the experiment on MDA-MB-231 [1] (siRNA: siBRCA1) and in the experiment on MDA-MB-231 [1] (setting [3]) was 0 in each case. The “IC50 of cell viability” value in the experiment on MDA-MB-231 [2] (siRNA: siBRCA1) and with MDA-MB-231 [2] (setting [3]) was more than 4.17 µM in each case.

Take `CNNCc1ccc(C(=O)NC(C)C)cc1` [Procarbazine]: the drug sensitivity score in the experiment with MDA-MB-231 [1] (siRNA: siBRCA1) and with MDA-MB-231 [1] (setting [3]) was 0 in each case. Further, the “IC50 of cell viability” value in the experiment with MDA-MB-231 [2] (siRNA: siBRCA1) and with MDA-MB-231 [2] (setting [3]) was more than 4.17 µM throughout.

Take `COc1cc(F)c(F)c(Nc2ccc(I)cc2F)c1NS(=O)(=O)C1(C[C@H](O)CO)CC1` [RDEA119 (Refametinib)]: the figures for the drug sensitivity score with MDA-MB-231 [1] (siRNA: siBRCA1) and in the experiment on MDA-MB-231 [1] (setting [3]) were 14.9 and 12.3, respectively. The results for the “IC50 of cell viability” value with MDA-MB-231 [2] (siRNA: siBRCA1) and in the experiment with MDA-MB-231 [2] (setting [3]) were 0.0922 µM and 0.146 µM, respectively.

In the case of `O=C(c1ccc(OCCN2CCCCC2)cc1)c1c(-c2ccc(O)cc2)sc2cc(O)ccc12` [Raloxifene], the drug sensitivity score in the experiment on MDA-MB-231 [1] (siRNA: siBRCA1) and in the experiment with MDA-MB-231 [1] (setting [3]) was 0 in each case. Also, the “IC50 of cell viability” value in the experiment with MDA-MB-231 [2] (siRNA: siBRCA1) and in the experiment with MDA-MB-231 [2] (setting [3]) was more than 4.17 µM each time.

On to `CO[C@H]1C[C@@H]2CC[C@@H](C)[C@@](O)(O2)C(=O)C(=O)N2CCCC[C@H]2C(=O)O[C@H]([C@H](C)C[C@@H]2CC[C@@H](O)[C@H](OC)C2)CC(=O)[C@H](C)/C=C(\C)[C@@H](O)[C@@H](OC)C(=O)[C@H](C)C[C@H](C)/C=C/C=C/C=C/1C` [Rapamycin (Sirolimus)], for which the drug sensitivity score with MDA-MB-231 [1] (siRNA: siBRCA1) came out at 15.5; in the experiment on MDA-MB-231 [1] (setting [3]), 15.3. For the same molecule, the “IC50 of cell viability” value in the experiment with MDA-MB-231 [2] (siRNA: siBRCA1) was 0.000904 µM; in the experiment with MDA-MB-231 [2] (setting [3]) it was less than 0.000833 µM.
